In article PMC12334608 (Nature Communications, 2025):
Substitutions are numbered along the chain they refer to. Values joined by “and” are separate entries in the source; they are usually repeats but may differ in a detail not shown here. Equal values may be shown once.

Experiments:
ACOX-1.1 = target: T1, ACOX-1.1 (Caenorhabditis elegans, UniProt O62140); assay: Analysis of enzyme activity; type: biochemical, C. elegans; settings: 10 μM FAD, 350 μM ATP
T1 sequence (O62140 1-674): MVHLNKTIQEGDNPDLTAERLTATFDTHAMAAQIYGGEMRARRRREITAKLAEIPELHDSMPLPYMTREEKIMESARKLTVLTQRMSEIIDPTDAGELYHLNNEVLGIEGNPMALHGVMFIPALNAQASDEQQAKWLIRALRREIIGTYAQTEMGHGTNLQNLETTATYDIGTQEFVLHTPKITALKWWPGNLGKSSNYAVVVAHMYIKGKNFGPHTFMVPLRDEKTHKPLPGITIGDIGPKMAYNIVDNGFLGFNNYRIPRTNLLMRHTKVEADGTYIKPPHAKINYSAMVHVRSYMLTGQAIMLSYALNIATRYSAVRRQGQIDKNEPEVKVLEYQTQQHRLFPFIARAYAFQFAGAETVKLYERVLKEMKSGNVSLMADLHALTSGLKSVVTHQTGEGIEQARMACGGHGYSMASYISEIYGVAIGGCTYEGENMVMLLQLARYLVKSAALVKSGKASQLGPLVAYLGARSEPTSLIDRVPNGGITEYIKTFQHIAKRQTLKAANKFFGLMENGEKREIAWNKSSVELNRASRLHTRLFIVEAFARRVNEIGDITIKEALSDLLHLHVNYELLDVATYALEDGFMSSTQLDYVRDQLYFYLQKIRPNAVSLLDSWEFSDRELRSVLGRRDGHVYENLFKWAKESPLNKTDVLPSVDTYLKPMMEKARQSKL

[1] = target: aspartate transcarbamoylase; settings: read-out: KD of the high-affinity ATP site; ATP-activated aspartate transcarbamoylase; cited from earlier work
ACOX-1.1(R343Q) = target: T2, ACOX-1.1(R343Q) (Caenorhabditis elegans, UniProt O62140, R343Q); assay: Enzyme-coupled kinetic assay, ACOX-1.1; type: biochemical, C. elegans; settings: varying ATP
T2 sequence (O62140 1-674 R343Q): T1 sequence (O62140 1-674) with R343Q

ACOX-1.1(K391N) = target: T3, ACOX-1.1(K391N) (Caenorhabditis elegans, UniProt O62140, K391N); assay: Enzyme-coupled kinetic assay, ACOX-1.1; type: biochemical, C. elegans
T3 sequence (O62140 1-674 K391N): T1 sequence (O62140 1-674) with K391N

apo ACOX-1.1 = target: T4, apo ACOX-1.1 (Caenorhabditis elegans, UniProt O62140); assay: Enzyme-coupled kinetic assay, wild-type apo ACOX-1.1; type: biochemical, C. elegans; settings: EC50 for ATP
T4 sequence (O62140 1-674): T1 sequence (O62140 1-674)

ACOX-1.1(R343A) = target: T5, ACOX-1.1(R343A) (Caenorhabditis elegans, UniProt O62140, R343A); assay: Enzyme-coupled kinetic assay, ACOX-1.1; type: biochemical, C. elegans; settings: varying ATP
T5 sequence (O62140 1-674 R343A): T1 sequence (O62140 1-674) with R343A

Nc1ncnc2c1ncn2[C@@H]1O[C@H](COP(=O)(O)OP(=O)(O)OP(=O)(O)O)[C@@H](O)[C@H]1O [ATP]
effect on rate of product formation (HPLC) (ACOX-1.1): increases the rate of product formation
Kd [1]: 100 to 200 µM
influence of ATP on the activity of the enzyme (ACOX-1.1(R343Q)): no influence on the activity of the enzyme
response of enzyme activity to ATP (ACOX-1.1(K391N)): did not respond to ATP
EC50 (apo ACOX-1.1; 10 μM FAD, 95% CI: 54.8–87.1 μM): 69.4 µM and ~69.4 µM
EC50 (apo ACOX-1.1; 200 μM FAD, 95% CI: 40.5–328.8 μM): 111 µM
influence of ATP on the activity of the enzyme (ACOX-1.1(R343A)): no influence on the activity of the enzyme
